Assay results published in ChEMBL document CHEMBL1122438, “2-Phenylpyrazolo[1,5-a]pyrimidin-7-ones. A new class of nonsteroidal antiinflammatory drugs devoid of ulcerogenic activity” (J Med Chem, 1983).
Calls of active or inactive are those of the source. No cut-off for these calls is given here.

Experiments:
Rattus norvegicus [1] = assay: Percent reduction of edema in rat on 23rd day after oral administration of 30 mg/kg in antiarthritis assay; i = Inactive; type: functional, organism-based; set-up: dose 30 mg/kg; details: at 30 mg/kg
Mus musculus [2] = assay: Percent reduction of edema in mice 3h after oral administration of 30 mg/kg in carrageenan model; type: functional
Rattus norvegicus [3] = assay: Percent reduction of edema in rat on 23rd day after oral administration of 30 mg/kg in antiarthritis assay; type: functional
Rattus norvegicus [4] = assay: Antiinflammatory activity evaluated by measuring % reduction of edema, 3h after oral administration of 30 mg/kg in carrageenan model; type: functional
Rattus norvegicus [5] = assay: Antiinflammatory activity evaluated by measuring % reduction of edema, 3h after oral administration of 50 mg/kg in carrageenan model; type: functional
Rattus norvegicus [6] = assay: Antiinflammatory activity evaluated by measuring % reduction of edema, 3h after oral administration of 20 mg/kg in carrageenan model; type: functional
Rattus norvegicus [7] = species: Rattus norvegicus; assay: (§1) Analgesic activity in acetic acid writhing test, activity is expressed as ED50 values; type: functional
Rattus norvegicus [8] = assay: Percent reduction of edema in rat on 23rd day after oral administration of 3 mg/kg in antiarthritis assay; type: functional
Rattus norvegicus [9] = assay: Median ulcerogenic dose was determined at 30 mg/kg dose; type: functional
Mus musculus [10] = assay: Acute toxicity was evaluated as number of mice died (tested = 7) after 72nd hour when 75 mg/kg is administered intraperitoneally; type: organism-based; set-up: dose 75 mg/kg, route intraperitoneal; details: in vivo, ip
Mus musculus [11] = assay: Acute toxicity was evaluated as number of mice died (tested = 7) after 72nd hour when 15 mg/kg is administered intraperitoneally; type: organism-based; set-up: dose 15 mg/kg, route intraperitoneal; details: in vivo, ip
Rattus norvegicus [12] = assay: Ulcer index at 5 mg/kg concentration; type: functional
Rattus norvegicus [13] = assay: Antiinflammatory activity evaluated by measuring % reduction of edema, 3h after oral administration of 1 mg/kg in carrageenan model; type: functional
Rattus norvegicus [14] = assay: Ulcer index at 30 mg/kg concentration; type: functional
[15] = Therapeutic index was expressed as LD50/ED50 carragreenin model; details: mouse; read-out: TI
Mus musculus [16] = assay: Percent reduction of edema in mice 3h after oral administration of 3 mg/kg in carrageenan model; type: functional
Rattus norvegicus [17] = species: Rattus norvegicus; assay: Antiinflammatory activity in carrageenan model, activity is expressed as ED50 values; type: functional
Rattus norvegicus [18] = assay: Analgesic activity evaluated by measuring % analgesic effect, after oral administration of 1.0 mg/kg in acetic acid writhing test; type: functional
Rattus norvegicus [19] = assay: (§2) Analgesic activity evaluated by measuring % analgesic effect, after oral administration of 120 mg/kg in acetic acid writhing test; type: functional
Rattus norvegicus [20] = assay: Analgesic activity evaluated by measuring % analgesic effect, after oral administration of 3.0 mg/kg in acetic acid writhing test; type: functional
Rattus norvegicus [21] = assay: Antiinflammatory activity evaluated by measuring % reduction of edema, 3h after oral administration of 5 mg/kg in carrageenan model; type: functional
Rattus norvegicus [22] = assay: Ulcer index at 50 mg/kg concentration; type: functional
Mus musculus [23] = assay: Acute toxicity was evaluated as number of mice died (tested = 7) after 72nd hour when 8 mg/kg is administered intraperitoneally; type: organism-based; set-up: dose 8 mg/kg, route intraperitoneal; details: in vivo, ip
[24] = Toxic activity is expressed as LD50 values; type: toxicity, organism-based; details: mouse, in vivo
Mus musculus [25] = assay: Acute toxicity was evaluated as number of mice died (tested = 7) after 72nd hour when 12 mg/kg is administered intraperitoneally; type: organism-based; set-up: dose 12 mg/kg, route intraperitoneal; details: in vivo, ip
Mus musculus [26] = species: Mus musculus; assay: as §1; type: functional
Mus musculus [27] = assay: Percent reduction of edema in mice 3h after oral administration of 20 mg/kg in carrageenan model; type: functional
Rattus norvegicus [28] = assay: Percent reduction of edema in rat on 23rd day after oral administration of 20 mg/kg in antiarthritis assay; i = Inactive; type: functional, organism-based; set-up: dose 20 mg/kg; details: at 20 mg/kg
Mus musculus [29] = assay: Analgesic activity evaluated by measuring % analgesic effect, after oral administration of 80 mg/kg in acetic acid writhing test; type: functional
Mus musculus [30] = assay: Analgesic activity evaluated by measuring % analgesic effect, after oral administration of 60 mg/kg in acetic acid writhing test; type: functional
Mus musculus [31] = assay: […] toxicity was evaluated (number of mice died after 72nd hour when 150 mg/kg is administered intraperitoneally; type: organism-based; set-up: dose 150 mg/kg, route intraperitoneal; details: in vivo, ip
Rattus norvegicus [32] = assay: Antiinflammatory activity evaluated by measuring % reduction of edema, 3h after oral administration of 100 mg/kg in carrageenan model; type: functional
Mus musculus [33] = assay: Acute toxicity was evaluated as number of mice (tested=7) died after 72nd hour when 120 mg/kg is administered intraperitoneally; type: organism-based; set-up: dose 120 mg/kg, route intraperitoneal; details: in vivo, ip
Mus musculus [34] = assay: Acute toxicity was evaluated as number of mice (tested=7) died after 72nd hour when 115 mg/kg is administered intraperitoneally; type: organism-based; set-up: dose 115 mg/kg, route intraperitoneal; details: in vivo, ip
Rattus norvegicus [35] = assay: Antiinflammatory activity evaluated by measuring % reduction of edema, 3h after oral administration of 25 mg/kg in carrageenan model; type: functional
Mus musculus [36] = assay: Acute toxicity was evaluated as number of mice (tested=7) died after 72nd hour when 100 mg/kg is administered intraperitoneally; type: organism-based; set-up: dose 100 mg/kg, route intraperitoneal; details: in vivo, ip
Mus musculus [37] = assay: as §2; type: functional
Rattus norvegicus [38] = assay: Antiinflammatory activity evaluated by measuring % reduction of edema, 3h after oral administration of 10 mg/kg in carrageenan model; type: functional
Mus musculus [39] = assay: Acute toxicity was evaluated as number of mice (tested=7) died after 72nd hour when 130 mg/kg is administered intraperitoneally; type: organism-based; set-up: dose 130 mg/kg, route intraperitoneal; details: in vivo, ip
Rattus norvegicus [40] = species: Rattus norvegicus; assay: Ulcer index of the compound; type: functional
Rattus norvegicus [41] = assay: Percent reduction of edema in rat on 23rd day after oral administration of 300 mg/kg in antiarthritis assay; i = Inactive; type: functional, organism-based; set-up: dose 300 mg/kg; details: at 300 mg/kg
Mus musculus [42] = assay: Percent reduction of edema in mice 3h after oral administration of 300 mg/kg in carrageenan model; type: functional
Rattus norvegicus [43] = assay: Percent reduction of edema in rat on 23rd day after oral administration of 100 mg/kg in antiarthritis assay; type: functional
Mus musculus [44] = assay: Percent reduction of edema in mice 3h after oral administration of 100 mg/kg in carrageenan model; type: functional
Rattus norvegicus [45] = assay: Percent reduction of edema in rat on 23rd day after oral administration of 20 mg/kg in antiarthritis assay; type: functional

CCn1ccc(=O)n2nc(-c3ccccc3)c(Br)c12
Reduction (Rattus norvegicus [1]): inactive | Reduction (Mus musculus [2]): 40.5%

CCCn1ccc(=O)n2nc(-c3ccccc3)cc12
Reduction (Rattus norvegicus [3]): 33% | Reduction (Mus musculus [2]): 52.1% | Reduction (Rattus norvegicus [4]): 52% | Reduction (Rattus norvegicus [5]): 70.8% | Reduction (Rattus norvegicus [6]): 31.9% | ED50 (Rattus norvegicus [7]): 29.8 mg/kg

COc1ccc2c(c1)c(CC(=O)O)c(C)n2C(=O)c1ccc(Cl)cc1 [INDOMETHACIN]
Reduction (Rattus norvegicus [8]): 39% | UD50 (Rattus norvegicus [9]): 12.1 mg/kg | Acute toxicity (Mus musculus [10]): 7 | Acute toxicity (Mus musculus [11]): 3 | UI (Rattus norvegicus [12]): 1.4 | Reduction (Rattus norvegicus [13]): 36.7% | UI (Rattus norvegicus [14]): 2.36 | selectivity ratio [15]: 10.9 | Reduction (Mus musculus [16]): 62.4% | ED50 (Rattus norvegicus [17]): 1.83 mg/kg | Analgesic effect (Rattus norvegicus [18]): 28% | Analgesic effect (Rattus norvegicus [19]): 28.4% | Analgesic effect (Rattus norvegicus [20]): 57% | Reduction (Rattus norvegicus [21]): 69.2% | UI (Rattus norvegicus [22]): 3.3 | Acute toxicity (Mus musculus [23]): 1 | LD50 [24]: 19.9 mg/kg | Acute toxicity (Mus musculus [25]): 2 | ED50 (Mus musculus [26]): 2.5 mg/kg

CC(C)n1ccc(=O)n2nc(-c3ccccc3)cc12
Reduction (Mus musculus [27]): 3.5% | Reduction (Rattus norvegicus [28]): inactive

Cn1ccc(=O)n2nc(-c3ccccc3)cc12
Analgesic effect (Mus musculus [29]): 53.3% | Analgesic effect (Mus musculus [30]): 43% | Acute toxicity (Mus musculus [31]): 6 | Reduction (Rattus norvegicus [32]): 67.5% | selectivity ratio [15]: 5.13 | Acute toxicity (Mus musculus [33]): 3 | ED50 (Rattus norvegicus [17]): 24.7 mg/kg | Reduction (Rattus norvegicus [3]): 29.8% | Acute toxicity (Mus musculus [34]): 1 | Reduction (Rattus norvegicus [35]): 55.1% | Acute toxicity (Mus musculus [36]): 0 | Analgesic effect (Mus musculus [37]): 80.7% | Reduction (Rattus norvegicus [38]): 34.2% | Reduction (Mus musculus [2]): 54% | LD50 [24]: 127 mg/kg | Acute toxicity (Mus musculus [39]): 4 | ED50 (Mus musculus [26]): 69.6 mg/kg | UI (Rattus norvegicus [40]): 0.5

CCCn1c(=O)ccn2nc(-c3ccccc3)cc12
Reduction (Rattus norvegicus [1]): inactive | Reduction (Mus musculus [2]): 18.9%

CCn1cc(Br)c(=O)n2nc(-c3ccccc3)c(Br)c12
Reduction (Rattus norvegicus [1]): inactive | Reduction (Mus musculus [2]): 0%

CCn1ccc(=O)n2nc(-c3ccccc3)c(SC#N)c12
Reduction (Rattus norvegicus [1]): inactive | Reduction (Mus musculus [2]): 42.2%

Cc1cn(C)c2cc(-c3ccccc3)nn2c1=O
Reduction (Rattus norvegicus [41]): inactive | Reduction (Mus musculus [42]): 68.7%

Cn1ccc(=O)n2nccc12
Reduction (Mus musculus [27]): 0% | Reduction (Rattus norvegicus [28]): inactive

CCn1c(=O)ccn2nc(-c3ccccc3)cc12
Reduction (Rattus norvegicus [43]): 25.7% | Reduction (Mus musculus [44]): 32.2%

O=c1ccn(Cc2ccccc2)c2cc(-c3ccccc3)nn12
Reduction (Mus musculus [27]): 5.8% | Reduction (Rattus norvegicus [45]): 18.2%
